Patent publication US20080214530A1, “Photo-Activated Disinfection” (priority 2003, published 2008)

Tested on: caries
Experiment: optimum photosensitiser concentration for photo-activated disinfection of caries
Settings: at 635 nm
Procedure: The concentration of tolonium chloride will depend on the specific application and chosen wavelength. We have determined an optimum at 635 nm for caries of 12 μg/ml. Longer wavelengths and other applications especially periodontal disease where in vivo dilution may occur are likely to need greater concentrations, whereas shorter wavelengths may require reduced concentrations. Preferably, therefore, the concentration should fall within an overall range between 1 and 200 μg/ml. […] The reduction in efficacy as the concentration increases beyond the optimum is thought to be due to the accompanying increasing absorption limiting the light transmission through the treatment zone.

Cc1cc2nc3ccc(N(C)C)cc3[s+]c2cc1N [tolonium chloride]
optimum concentration: 12 µg/mL
